# Source: ChEMBL document CHEMBL4376842, “Synthesis and Biological Evaluation of Subglutinol Analogs for Immunomodulatory Agents” (J Med Chem, 2020)
# Calls of active or inactive are those of the source. No cut-off for these calls is given here.
# Assays:
# [1] = species on record: Mus musculus; experiment: (§1) Immunosuppressive activity in OT2 mouse CD4-positive T cells derived OVA(323 to 339)-activated Th-differentiating media cultured Th1 cells assessed as reduction in pDBU/ionomycin-stimulated IFNgamma production up to 10 uM treated last 2 days of 5 days differentiation followed by pDBU/ionomycin stimulation on day 5 measured after 4 hrs by anti-mouse IFNgamma-Pacific Blue/IL-2-APC staining based flow cytometry; format: functional
# [2] = species on record: Mus musculus; experiment: as §1, with “Th17” for “Th1”, “[…]” for “IFNgamma”, “IL17A-APC” for “IFNgamma-Pacific Blue/IL-2-APC”; format: functional
# [3] = as §1, with “at late stage by measuring INFgamma level at” for “up to”, “cytometry (reference value: 4.34%)” for “cytometry”; format: functional; set-up: scale not given: the % may be the effect or the level left
# [4] = as §1, with “at late stage by measuring INFgamma level at 100 nM” for “up to 10 uM”, “cytometry (reference value: 4.34%)” for “cytometry”; format: functional; set-up: scale not given: the % may be the effect or the level left
# [5] = as §1, with “Th17” for “Th1”, “1L17A” for “IFNgamma”, “by measuring IL17A level at” for “up to”, “IL17A-APC” for “IFNgamma-Pacific Blue/IL-2-APC”, “cytometry (reference value: 1.44%)” for “cytometry”; format: functional; set-up: scale not given: the % may be the effect or the level left
# [6] = as §1, with “Th17” for “Th1”, “1L17A” for “IFNgamma”, “by measuring IL17A level at 100 nM” for “up to 10 uM”, “IL17A-APC” for “IFNgamma-Pacific Blue/IL-2-APC”, “cytometry (reference value: 1.44%)” for “cytometry”; format: functional; set-up: scale not given: the % may be the effect or the level left
# [7] = as §1, with “at early stage by measuring INFgamma level at” for “up to”, “cytometry (reference value: 57.3%)” for “cytometry”; format: functional; set-up: scale not given: the % may be the effect or the level left
# [8] = as §1, with “at early stage by measuring INFgamma level at 100 nM” for “up to 10 uM”, “cytometry (reference value: 57.3%)” for “cytometry”; format: functional; set-up: scale not given: the % may be the effect or the level left
# [9] = Cytotoxicity against OT2 mouse CD4-positive T cells assessed as cell viability at 10 uM measured after 48 hrs by live/dead viability staining based flow cytometry (reference value: 57.2%); details: read-out: Activity
# [10] = Cytotoxicity against OT2 mouse CD4-positive T cells assessed as cell viability at 100 nM measured after 48 hrs by live/dead viability staining based flow cytometry (reference value: 57.2%); details: read-out: Activity
# [11] = Cytotoxicity against OT1 mouse CD8-positive T cells assessed as cell viability at 10 uM measured after 48 hrs by live/dead viability staining based flow cytometry (reference value: 39.5%); details: read-out: Activity
# [12] = Cytotoxicity against OT1 mouse CD8-positive T cells assessed as cell viability at 100 nM measured after 48 hrs by live/dead viability staining based flow cytometry (reference value: 39.5%); details: read-out: Activity
# [13] = Toxicity in MOG/CFA/Ptx-induced C57B/6 mouse model of experimental autoimmune encephalitis assessed as adverse changes at 4 umol, ip administered on day 4, 6, and 8 starting from 2 days post-disease induction and measured up to 50 days; format: organism-based; details: in vivo
# [14] = tested on: Mus musculus; experiment: Immunosuppressive activity in MOG/CFA/Ptx-induced C57B/6 mouse model of experimental autoimmune encephalitis assessed as decrease in clinical symptoms at 4 umol, ip administered on day 4, 6, and 8 starting from 2 days post-disease induction and measured daily up to 50 days; format: functional, organism-based
# [15] = tested on: Mus musculus; experiment: Immunosuppressive activity in MOG/CFA/Ptx-induced C57B/6 mouse model of experimental autoimmune encephalitis assessed as time of disease onset at 4 umol, ip administered on day 4, 6, and 8 starting from 2 days post-disease induction and measured daily up to 50 days; format: functional
# [16] = tested on: Mus musculus; experiment: (§2) Immunosuppressive activity in MOG/CFA/Ptx-induced C57B/6 mouse model of experimental autoimmune encephalitis assessed as change in T cell composition at 4 umol, ip administered on day 4 and 6 starting from 2 days post-disease induction and measured on day 7 post-last disease induction by immunostaining-based flow cytometry; format: functional, organism-based
# [17] = tested on: Mus musculus; experiment: as §2, with “dendritic” for “T”; format: functional, organism-based
# [18] = tested on: Mus musculus; experiment: as §2, with “change in regulatory T cell” for “change in T cell”; format: functional, organism-based
# [19] = tested on: Mus musculus; experiment: as §2, with “macrophage” for “T cell”; format: functional, organism-based
# [20] = tested on: Mus musculus; experiment: as §2, with “neutrophil” for “T cell”; format: functional, organism-based
# [21] = tested on: Mus musculus; experiment: as §2, with “granulocytic myeloid-derived suppressor” for “T”; format: functional, organism-based
# [22] = tested on: Mus musculus; experiment: as §2, with “live cells” for “change in T cell composition”, “live/dead staining-based” for “immunostaining-based”, “cytometry (reference value: 87.5%)” for “cytometry”; format: functional
# [23] = tested on: Mus musculus; experiment: as §2, with “CD11b+ F4/80+ cells” for “change in T cell composition”, “cytometry (reference value: 15%)” for “cytometry”; format: functional
# [24] = tested on: Mus musculus; experiment: as §2, with “macrophage cells” for “change in T cell composition”, “cytometry (reference value: 10.5%)” for “cytometry”; format: functional
# [25] = tested on: Mus musculus; experiment: as §2, with “granulocytic myeloid-derived suppressor cells” for “change in T cell composition”, “cytometry (reference value: 28.1%)” for “cytometry”; format: functional
# [26] = tested on: Mus musculus; experiment: as §2, with “inflammatory neutrophil cells” for “change in T cell composition”, “cytometry (reference value: 35.2%)” for “cytometry”; format: functional
# [27] = species on record: Mus musculus; experiment: as §1, with “production” for “production up to 10 uM”; format: functional
structure (smiles),measurement,setting,value
CC[C@@H]1C[C@@]2(C)[C@@H]3CCC[C@@H](Cc4c(O)c(C)c(C)oc4=O)[C@@]3(C)CC[C@@H]2O1,Activity,[1],Active
same,Activity,[2],Active
C=C1CC[C@H]2[C@]3(C)C[C@@H](C=C(C)C)O[C@H]3CC[C@]2(C)[C@@H]1Cc1ccccc1,Activity,[1],Active
same,Activity,[2],Active
Cc1oc(=O)c(C[C@H]2CCC[C@H]3CCCC[C@@]32C)c(O)c1C,Activity,[1],Active
same,Activity,[2],Active
CC(C)=CC1Cc2c(ccc3c(Cc4c(O)c(C)c(C)oc4=O)cccc23)O1 (stereo not given),Activity,[1],Active
same,Activity,[2],Active
Cc1oc(=O)c(C[C@@H]2CCC[C@H]3CCCC[C@@]32C)c(O)c1C,Activity,[3],0%
same,Activity,[4],1.03%
same,Activity,[5],2.01%
same,Activity,[6],1.33%
same,Activity,[7],0.47%
same,Activity,[8],18.7%
same,"viability at 48 h, 10 µM",[9],41.5%
same,"viability at 48 h, 0.1 µM",[10],60.6%
same,"viability at 48 h, 10 µM",[11],8.85%
same,"viability at 48 h, 0.1 µM",[12],42.6%
same,Activity,[13],Non-Toxic
same,Activity,[14],inactive
same,Time,[15],15 days
same,Activity,[16],inactive
same,Activity,[17],inactive
same,Activity,[18],inactive
same,Activity,[19],inactive
same,Activity,[20],inactive
same,Activity,[21],inactive
same,Activity,[22],88.8%
same,Activity,[23],11%
same,Activity,[24],4%
same,Activity,[25],2.41%
same,Activity,[26],74.7%
CC[C@@H]1C[C@@]2(C)[C@@H]3CCC[C@H](Cc4c(O)c(C)c(C)oc4=O)[C@@]3(C)CC[C@@H]2O1,Activity,[1],Active
same,Activity,[2],Active
C=C1CC[C@H]2[C@]3(C)C[C@@H](C=C(C)C)O[C@H]3CC[C@]2(C)[C@@H]1Cc1c(O)c(C)c(C)oc1=O [SUBGLUTINOL A],Activity,[27],Dose-dependent effect
same,Activity,[3],0%
same,Activity,[4],0%
same,Activity,[5],0.064%
same,Activity,[6],0.017%
same,Activity,[7],1.54%
same,Activity,[8],0.84%
same,"viability at 48 h, 10 µM",[9],24.4%
same,"viability at 48 h, 0.1 µM",[10],46%
same,"viability at 48 h, 10 µM",[11],7.19%
same,"viability at 48 h, 0.1 µM",[12],14.5%
